From patent US20240025922A1, “TETRAHYDROPYRIDO[3,4-d]PYRIMIDINES AS HPK1 INHIBITORS” (Merck Patent GmbH, priority 2022, published 2024)
Like-named read-outs stand apart in the source and are kept apart here.

Assays:
[1] = target: full-length human HPK1 (MAP4K1) (Homo sapiens (Human), UniProt Q92918); test: HPK1 Kinase Assay (Biochemical Assay), ADP-Glo; conditions: GST-HPK1 3.2 nM, 10 μM ATP, MBP substrate, read-out: HPK1 enzymatic IC50
Outline: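 ADP-Glo luminescence after a 120-min kinase reaction gave percent inhibition and IC50. The enzyme was Sf21-expressed N-terminal GST full-length human HPK1 at 3.2 nM in HEPES pH 7.5 buffer with MgCl2, DTT, Brij-35 and BSA.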

[2] = target: HPK1 (SLP76 phosphorylation at Ser376 in Jurkat and EL-4 cells) (Homo sapiens, UniProt Q92918); type: cell-based
Outline: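 Phospho-SLP76 (Ser376) in lysates measured by AlphaLISA for human Jurkat and by 19 h HTRF for mouse EL-4, giving % inhibition and IC50. Compounds applied 60 min before αCD3/αCD28 bead stimulation at 37 °C, lasting 15 min (Jurkat) or 30 min (EL-4).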

[3] = αCD3/αCD28 Dynabeads stimulated cells, pSLP76 (Ser376) detection; read-out: HPK1 pSLP76 IC50
[4] = read-out: HPK1 pSLP76 IC50; αCD3/αCD28 Dynabeads stimulated cells, pSLP76 (Ser376) detection

full-length human HPK1 (MAP4K1), sequence (Q92918 whole entry): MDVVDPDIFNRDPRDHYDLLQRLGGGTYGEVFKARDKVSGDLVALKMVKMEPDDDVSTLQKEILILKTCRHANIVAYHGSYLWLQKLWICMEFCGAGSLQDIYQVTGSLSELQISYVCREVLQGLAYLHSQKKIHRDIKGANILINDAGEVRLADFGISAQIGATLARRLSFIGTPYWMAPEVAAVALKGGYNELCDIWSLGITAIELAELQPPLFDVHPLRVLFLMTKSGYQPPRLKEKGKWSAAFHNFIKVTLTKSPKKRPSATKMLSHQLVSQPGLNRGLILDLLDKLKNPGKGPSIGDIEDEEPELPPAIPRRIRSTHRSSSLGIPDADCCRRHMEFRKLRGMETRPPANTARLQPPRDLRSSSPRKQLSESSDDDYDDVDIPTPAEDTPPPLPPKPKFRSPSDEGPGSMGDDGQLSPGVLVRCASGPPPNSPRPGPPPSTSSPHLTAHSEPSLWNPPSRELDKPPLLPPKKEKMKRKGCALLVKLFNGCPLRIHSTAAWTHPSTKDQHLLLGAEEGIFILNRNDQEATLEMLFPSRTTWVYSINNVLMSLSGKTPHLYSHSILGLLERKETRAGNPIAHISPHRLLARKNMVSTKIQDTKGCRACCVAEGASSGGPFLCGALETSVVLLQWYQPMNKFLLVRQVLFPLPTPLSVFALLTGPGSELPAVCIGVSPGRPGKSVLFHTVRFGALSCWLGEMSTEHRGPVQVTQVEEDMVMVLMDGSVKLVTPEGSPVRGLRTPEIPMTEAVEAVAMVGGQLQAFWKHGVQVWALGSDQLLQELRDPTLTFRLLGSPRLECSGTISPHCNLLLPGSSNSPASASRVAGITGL
HPK1 (SLP76 phosphorylation at Ser376 in Jurkat and EL-4 cells), sequence (Q92918 whole entry, looked up): as the sequence (Q92918 whole entry) above

SMILES | IC50 [1] [µM] | IC50 [2, 3] [µM] | IC50 [2, 4] [µM]
COCCOc1ccc(Nc2ncc3c(n2)CN(c2cnc4c(c2C)NCCO4)CC3)cc1CO [Example 83, (2-(2-methoxyethoxy)-5-((7-(8-methyl-2,3-dihydro-1H-pyrido[2,3-b][1,4]oxazin-7-yl)-5,6,7,8-tetrahydropyrido[3,4-d]pyrimidin-2-yl)amino)phenyl)methanol] | < 0.1 | 0.5 to 1 | –
Cc1c(N2CCc3cnc(Nc4ccc5c(c4)CCOC5)nc3C2)cnc2c1NCCO2 [Example 84, N-(isochroman-6-yl)-7-(8-methyl-2,3-dihydro-1H-pyrido[2,3-b][1,4]oxazin-7-yl)-5,6,7,8-tetrahydropyrido[3,4-d]pyrimidin-2-amine] | < 0.1 | < 0.5 | –
Cc1c(N2CCc3cnc(Nc4ccc5c(c4)CNC5=O)nc3C2)cnc2c1NCCO2 [Example 85, 5-((7-(8-methyl-2,3-dihydro-1H-pyrido[2,3-b][1,4]oxazin-7-yl)-5,6,7,8-tetrahydropyrido[3,4-d]pyrimidin-2-yl)amino)isoindolin-1-one] | < 0.1 | > 1 | –
CN1CCc2ncc(Nc3ncc4c(n3)CN(c3cnc5c(c3)NCCO5)CC4)cc2C1 [Example 87, 7-(2,3-dihydro-1H-pyrido[2,3-b][1,4]oxazin-7-yl)-N-(6-methyl-5,6,7,8-tetrahydro-1,6-naphthyridin-3-yl)-5,6,7,8-tetrahydropyrido[3,4-d]pyrimidin-2-amine] | 0.1 to 1 | > 1 | –
Cc1c(N2CCc3cnc(Nc4ccc(OC[C@@H]5COCCO5)cc4)nc3C2)cnc2c1NCCO2 [Example 90, (S)—N-(4-((1,4-dioxan-2-yl)methoxy)phenyl)-7-(8-methyl-2,3-dihydro-1H-pyrido[2,3-b][1,4]oxazin-7-yl)-5,6,7,8-tetrahydropyrido[3,4-d]pyrimidin-2-amine] | < 0.1 | 0.5 to 1 | –
Cc1c(N2CCc3cnc(Nc4ccc(N5CCC(O)CC5)c(CC#N)c4)nc3C2)cnc2c1NCCO2 [Example 91, 2-(2-(4-hydroxypiperidin-1-yl)-5-((7-(8-methyl-2,3-dihydro-1H-pyrido[2,3-b][1,4]oxazin-7-yl)-5,6,7,8-tetrahydropyrido[3,4-d]pyrimidin-2-yl)amino)phenyl)acetonitrile] | < 0.1 | < 0.5 | –
Cc1c(N2CCc3cnc(Nc4ccc5c(c4)COC5)nc3C2)cnc2c1NCCO2 [Example 92, N-(1,3-dihydroisobenzofuran-5-yl)-7-(8-methyl-2,3-dihydro-1H-pyrido[2,3-b][1,4]oxazin-7-yl)-5,6,7,8-tetrahydropyrido[3,4-d]pyrimidin-2-amine] | < 0.1 | 0.5 to 1 | –
Cc1c(N2CCc3cnc(Nc4ccc5c(c4)C(C)(C)OC5)nc3C2)cnc2c1NCCO2 [Example 93, N-(3,3-dimethyl-1,3-dihydroisobenzofuran-5-yl)-7-(8-methyl-2,3-dihydro-1H-pyrido[2,3-b][1,4]oxazin-7-yl)-5,6,7,8-tetrahydropyrido[3,4-d]pyrimidin-2-amine] | < 0.1 | – | < 0.5
Cc1c(N2CCc3cnc(Nc4ccc(OC5CCOCC5)cc4)nc3C2)cnc2c1NCCO2 [Example 94, 7-(8-methyl-2,3-dihydro-1H-pyrido[2,3-b][1,4]oxazin-7-yl)-N-(4-((tetrahydro-2H-pyran-4-yl)oxy)phenyl)-5,6,7,8-tetrahydropyrido[3,4-d]pyrimidin-2-amine] | < 0.1 | – | 0.5 to 1
Cc1c(N2CCc3cnc(Nc4ccc5c(c4)CN(C)C5=O)nc3C2)cnc2c1NCCO2 [Example 96, 2-methyl-5-((7-(8-methyl-2,3-dihydro-1H-pyrido[2,3-b][1,4]oxazin-7-yl)-5,6,7,8-tetrahydropyrido[3,4-d]pyrimidin-2-yl)amino)isoindolin-1-one] | < 0.1 | – | > 1
Cc1c(N2CCc3cnc(Nc4ccc(OCCN5CCOCC5)cc4)nc3C2)cnc2c1NCCO2 [Example 97, 7-(8-methyl-2,3-dihydro-1H-pyrido[2,3-b][1,4]oxazin-7-yl)-N-(4-(2-morpholinoethoxy)phenyl)-5,6,7,8-tetrahydropyrido[3,4-d]pyrimidin-2-amine] | < 0.1 | – | 0.5 to 1
COCCOc1ccc(Nc2ncc3c(n2)CN(c2cnc4c(c2C)NCCO4)CC3)cc1 [Example 98, N-(4-(2-methoxyethoxy)phenyl)-7-(8-methyl-2,3-dihydro-1H-pyrido[2,3-b][1,4]oxazin-7-yl)-5,6,7,8-tetrahydropyrido[3,4-d]pyrimidin-2-amine] | < 0.1 | 0.5 to 1 | –
Cc1c(N2CCc3cnc(Nc4ccc(CN5CCOCC5)cc4)nc3C2)cnc2c1NCCO2 [Example 99, 7-(8-methyl-2,3-dihydro-1H-pyrido[2,3-b][1,4]oxazin-7-yl)-N-(4-(morpholinomethyl)phenyl)-5,6,7,8-tetrahydropyrido[3,4-d]pyrimidin-2-amine] | < 0.1 | 0.5 to 1 | –
Cc1c(N2CCc3cnc(Nc4ccc(C5CCN(C)CC5)cc4)nc3C2)cnc2c1NCCO2 [Example 100, 7-(8-methyl-2,3-dihydro-1H-pyrido[2,3-b][1,4]oxazin-7-yl)-N-(4-(1-methylpiperidin-4-yl)phenyl)-5,6,7,8-tetrahydropyrido[3,4-d]pyrimidin-2-amine] | < 0.1 | 0.5 to 1 | –
Cc1c(N2CCc3cnc(Nc4ccc(N5CCC(O)CC5)nc4)nc3C2)cnc2c1NCCO2 [Example 102, 1-(5-((7-(8-methyl-2,3-dihydro-1H-pyrido[2,3-b][1,4]oxazin-7-yl)-5,6,7,8-tetrahydropyrido[3,4-d]pyrimidin-2-yl)amino)pyridin-2-yl)piperidin-4-ol] | < 0.1 | – | > 1
Cc1c(N2CCc3cnc(Nc4ccc(N5CCC(OC(F)(F)F)CC5)cc4)nc3C2)cnc2c1NCCO2 [Example 103, 7-(8-methyl-2,3-dihydro-1H-pyrido[2,3-b][1,4]oxazin-7-yl)-N-(4-(4-(trifluoromethoxy)piperidin-1-yl)phenyl)-5,6,7,8-tetrahydropyrido[3,4-d]pyrimidin-2-amine] | < 0.1 | – | > 1
Cc1c(N2CCc3cnc(Nc4ccc5c(c4)CN(C)C5)nc3C2)cnc2c1NCCO2 [Example 104, 7-(8-methyl-2,3-dihydro-1H-pyrido[2,3-b][1,4]oxazin-7-yl)-N-(2-methylisoindolin-5-yl)-5,6,7,8-tetrahydropyrido[3,4-d]pyrimidin-2-amine] | < 0.1 | < 0.5 | –
Cc1c(N2CCc3cnc(Nc4cnc5c(c4)CN(CC(F)F)CC5)nc3C2)cnc2c1NCCO2 [Example 105, N-(6-(2,2-difluoroethyl)-5,6,7,8-tetrahydro-1,6-naphthyridin-3-yl)-7-(8-methyl-2,3-dihydro-1H-pyrido[2,3-b][1,4]oxazin-7-yl)-5,6,7,8-tetrahydropyrido[3,4-d]pyrimidin-2-amine] | < 0.1 | 0.5 to 1 | –
Cc1c(N2CCc3cnc(Nc4cnc5c(c4)CN(CC(F)(F)F)CC5)nc3C2)cnc2c1NCCO2 [Example 106, 7-(8-methyl-2,3-dihydro-1H-pyrido[2,3-b][1,4]oxazin-7-yl)-N-(6-(2,2,2-trifluoroethyl)-5,6,7,8-tetrahydro-1,6-naphthyridin-3-yl)-5,6,7,8-tetrahydropyrido[3,4-d]pyrimidin-2-amine] | < 0.1 | > 1 | –
